Data from patent publication US6984656B2, “Core modified porphyrins” (priority 2001, dated 2006).

Legend:
[1] = system: R3230AC cells; assay: Viability of R3230AC cells in the dark and after light; assay type: cell-based, rat; details: 10^−6 M; 24 h after 0.9 J cm^−2 of 590-750 nm light
[2] = system: cytochrome c oxidase; assay: Whole cell mitochondrial cytochrome c oxidase activity in R3230AC cells; assay type: cell-based, rat
Procedure: In parallel experiments, mitochondrial cytochrome c oxidase activity was determined after exposure of R3230AC cells to the same porphyrins either in the dark or 24 h after light exposure (FIG. 8b). […] In contrast, MA-99 inhibited whole cell cytochrome c oxidase activity by 60% after a 24-h incubation period in R3230AC cells. […] Cytochrome c oxidase activity in R3230AC cells irradiated in the presence of MA-99 was inhibited by 95%, […] in enzyme activity compared to that obtained from cells incubated with MA-99, but not exposed to light.
Determination of the effects of dyes on intracellular mitochondrial cytochrome c oxidase are performed on cultured R3230AC cells. Cultures are seeded at 1×10^5 cells/well on 12-well plates in 1.0 mL MEM (described above). Twenty-four h later, sensitizers are added at concentrations ranging from 10^−4 to 10^−6 M. Cells are incubated in the dark with the sensitizers in MEM for 24 h in a 37° C. incubator. […] Cytochrome c oxidase is measured as above after cell suspensions are thawed and sonicated on ice after 30 s at 10 s bursts using a Branson probe sonifier set at a power of 2. The whole-cell lysate is added to the cytochrome c reaction mixture and results are expressed as the amount of cytochrome c oxidase activity per 10^5 cells.

[3] = system: BALB/c mice; assay: Preliminary toxicity, single intravenous injection in BALB/c mice

O=C([O-])COc1ccc(-c2c3nc(c(-c4ccc(F)cc4)c4ccc(s4)c(-c4ccc(F)cc4)c4nc(c(-c5ccc(OCC(=O)[O-])cc5)c5ccc2s5)C=C4)C=C3)cc1.[Na+].[Na+] [MA-99]
reduction in cell number after light exposure [1]: 40% | inhibition of whole cell cytochrome c oxidase activity in the dark ([2]; 24-h incubation, dark): 60% | reduction of cytochrome c oxidase activity after irradiation ([2]; 24 h after 0.9 J cm^−2 of 590-750 nm light, vs control untreated cells): 95% | gross abnormalities in organs and tissues after sacrifice ([3]; 10 mg/kg i.v., after 90 days): no gross abnormalities were noted | toxicity and morbidity ([3]; 10 mg/kg, followed 90 days post-injection, normal vivarium light): neither toxicity nor morbidity was observed
